Results published in ChEMBL document CHEMBL1131307, “Novel nonnucleoside inhibitors of HIV-1 reverse transcriptase. 8. 8-Aryloxymethyl- and 8-arylthiomethyldipyridodiazepinones” (J Med Chem, 1998).
Blank lines part the entries; values can stand above or below the molecule they belong to.

Key:
[1] = molecular target: Human immunodeficiency virus type 1 reverse transcriptase (Human immunodeficiency virus 1, UniProt Q72547); test: Inhibitory activity against HIV-1 wild-type reverse transcriptase.
[2] = molecular target: Human immunodeficiency virus type 1 reverse transcriptase (Human immunodeficiency virus 1, UniProt Q72547, K103N); test: Inhibitory activity against HIV-1 Mutant Reverse transcriptase K103N
[3] = molecular target: Human immunodeficiency virus type 1 reverse transcriptase (Human immunodeficiency virus 1, UniProt Q72547, Y181C); test: Inhibitory activity against HIV-1 Y181C reverse transcriptase.
Homo sapiens [4] = organism: Homo sapiens; test: (§1) In vitro metabolism in human liver microsomes
[5] = molecular target: Human immunodeficiency virus type 1 reverse transcriptase (Human immunodeficiency virus 1, UniProt Q72547, Y188L); test: Inhibitory activity against HIV-1 Y188L reverse transcriptase.
[6] = Compound was tested for its toxicity by using MTT toxicity assay.
[7] = system: Human immunodeficiency virus type 1 reverse transcriptase (Human immunodeficiency virus 1), Q72547 [Y181C]; test: Inhibitory activity against HIV-1 Y181C reverse transcriptase at 1 uM concentration
[8] = molecular target: Human immunodeficiency virus type 1 reverse transcriptase (Human immunodeficiency virus 1) (UniProt Q72547); test: Inhibitory activity against HIV-1 wild-type reverse transcriptase at 1 uM concentration
[9] = system: Human immunodeficiency virus type 1 reverse transcriptase (Human immunodeficiency virus 1), Q72547 [R221A]; test: Inhibitory activity against HIV-1 Y188L reverse transcriptase t 1 uM concentration
[10] = system: Human immunodeficiency virus type 1 reverse transcriptase (Human immunodeficiency virus 1), Q72547 [R221A]; test: Inhibitory activity against HIV-1 Y188L reverse transcriptase at 1 uM concentration
C8166 [11] = test: (§2) Inhibitory activity against HIV-1 IIIB replication in C8166 cells.; type: functional, cell-based; details: Homo sapiens
C8166 [12] = test: as §2; type: functional; details: Homo sapiens
Homo sapiens [13] = organism: Homo sapiens; test: as §1; type: ADME

SMILES: CCN1c2ncc(COc3cccc(OC)c3)cc2C(=O)N(C)c2ccc(Cl)nc21
IC50 [1]: 100 nM | IC50 [2]: 130 nM | IC50 [3]: 280 nM

SMILES: CCN1c2ncc(COc3cccc(C(N)=O)c3)cc2C(=O)N(C)c2ccc(Cl)nc21
Metabolism (Homo sapiens [4]): 292 pmol/min/mg | IC50 [5]: 340 nM | IC50 [1]: 30 nM | IC50 [3]: 280 nM | CC30 [6]: 130 µM

SMILES: CCN1c2ncc(C(=O)N(C)c3ccccc3)cc2C(=O)N(C)c2ccc(Cl)nc21
inhibition [7]: 20% | inhibition [8]: 15% | inhibition [9]: 46%

SMILES: CCN1c2ncc(CNc3cccc(N)c3)cc2C(=O)N(C)c2ccc(Cl)nc21
IC50 [1]: 60 nM | IC50 [3]: 100 nM | CC30 [6]: 60 µM

SMILES: CCN1c2ncc(COc3ccccc3C(=O)OC)cc2C(=O)N(C)c2ccc(Cl)nc21
inhibition [7]: 2% | inhibition [8]: 25% | inhibition [10]: 2%

SMILES: CCN1c2ncc(COc3ccncc3)cc2C(=O)N(C)c2ccc(Cl)nc21
Metabolism (Homo sapiens [4]): 53 pmol/min/mg | IC50 (C8166 [11]): 6 nM | IC90 (C8166 [12]): 24 nM | IC50 [1]: 70 nM | IC50 [2]: 70 nM | IC50 [3]: 260 nM | CC30 [6]: > 120 µM

SMILES: CCN1c2ncc(COc3cc[n+]([O-])c(C(F)(F)F)c3)cc2C(=O)N(C)c2ccc(Cl)nc21
IC50 [1]: 120 nM | IC50 [3]: 270 nM

SMILES: Cc1ccnc2c1NC(=O)c1cccnc1N2C1CC1 [NEVIRAPINE]
Metabolism (Homo sapiens [13]): 2 pmol/min/mg

SMILES: CCN1c2ncc(COc3cccc(N)c3)cc2C(=O)N(C)c2ccc(Cl)nc21
IC50 (C8166 [11]): 19 nM | IC90 (C8166 [12]): 36 nM | IC50 [5]: 370 nM | IC50 [1]: 50 nM | IC50 [3]: 100 nM

SMILES: CCN1c2ncc(COc3ccncc3)cc2C(=O)N(C)c2cccnc21
IC50 [5]: 5520 nM | IC50 [1]: 20 nM | IC50 [2]: 50 nM | IC50 [3]: 140 nM | CC30 [6]: > 256 µM

SMILES: CCN1c2ncc(COc3cc[n+]([O-])cc3)cc2C(=O)N(C)c2ccc(Cl)nc21
inhibition [7]: 39% | IC50 [1]: 230 nM | inhibition [10]: 0%

SMILES: CCN1c2ncc(COc3cc[n+]([O-])c(C)c3)cc2C(=O)N(C)c2ccc(Cl)nc21
IC50 [5]: 4310 nM | IC50 [1]: 100 nM | IC50 [3]: 210 nM

SMILES: CCN1c2ncc(CCc3ccccc3)cc2C(=O)N(C)c2ccc(Cl)nc21
Metabolism (Homo sapiens [4]): 288 pmol/min/mg | IC50 [5]: 960 nM | IC50 [1]: 50 nM | IC50 [2]: 50 nM | IC50 [3]: 150 nM

SMILES: CCN1c2ncc(CCc3ccncc3)cc2C(=O)N(C)c2ccc(Cl)nc21
Metabolism (Homo sapiens [4]): 145 pmol/min/mg | IC50 [5]: 1850 nM | IC50 [1]: 80 nM | IC50 [2]: 120 nM | IC50 [3]: 120 nM

SMILES: CCN1c2ncc(COc3ccccc3O)cc2C(=O)N(C)c2ccc(Cl)nc21
IC50 [1]: 100 nM | IC50 [3]: 350 nM

SMILES: CCN1c2ncc(COc3ccccc3)cc2C(=O)N(C)c2ccc(Cl)nc21
Metabolism (Homo sapiens [4]): 171 pmol/min/mg | IC50 (C8166 [11]): 50 nM | IC90 (C8166 [12]): 113 nM | IC50 [5]: 640 nM | IC50 [1]: 110 nM | IC50 [2]: 20 nM | IC50 [3]: 60 nM | CC30 [6]: > 60 µM

SMILES: CCN1c2ncc(CNc3ccccc3)cc2C(=O)N(C)c2ccc(Cl)nc21
IC50 [1]: 80 nM | IC50 [2]: 50 nM | IC50 [3]: 370 nM | CC30 [6]: > 60 µM

SMILES: CCN1c2ncc(CN(C)c3ccccc3)cc2C(=O)N(C)c2ccc(Cl)nc21
inhibition [7]: 18% | IC50 [1]: 590 nM | inhibition [10]: 17%

SMILES: CCN1c2ncc(COc3cc[n+]([O-])cc3)cc2C(=O)N(C)c2ccc(F)nc21
inhibition [10]: 31%

SMILES: CCN1c2ncc(COc3cccc(F)c3)cc2C(=O)N(C)c2ccc(Cl)nc21
inhibition [7]: 11% | inhibition [8]: 24% | inhibition [10]: 16%

SMILES: CCN1c2ncc(COc3cccc(C(=O)OC)c3)cc2C(=O)N(C)c2ccc(Cl)nc21
inhibition [7]: 23% | IC50 [1]: 700 nM | inhibition [10]: 11%

SMILES: CCN1c2ncc(CSc3ccccc3)cc2C(=O)N(C)c2ccc(Cl)nc21
Metabolism (Homo sapiens [4]): 554 pmol/min/mg | IC50 (C8166 [11]): 5 nM | IC90 (C8166 [12]): 13 nM | IC50 [5]: 30 nM | IC50 [1]: 20 nM | IC50 [2]: 30 nM | IC50 [3]: 10 nM | CC30 [6]: > 60 µM

SMILES: CCN1c2ncc(COc3ccc(O)cc3)cc2C(=O)N(C)c2ccc(Cl)nc21
inhibition [7]: 27% | IC50 [1]: 210 nM | inhibition [10]: 21%

SMILES: CCN1c2ncc(COc3ccc(F)cc3)cc2C(=O)N(C)c2ccc(Cl)nc21
IC50 [1]: 280 nM | IC50 [3]: 1660 nM

SMILES: CCN1c2ncc(COc3ccc(C(=O)OC)cc3)cc2C(=O)N(C)c2ccc(Cl)nc21
inhibition [7]: 33% | IC50 [1]: 800 nM | inhibition [10]: 0%

SMILES: CCN1c2ncc(COc3ccncc3)cc2C(=O)N(C)c2ccc(F)nc21
Metabolism (Homo sapiens [4]): 41 pmol/min/mg | IC50 [1]: 50 nM | IC50 [2]: 40 nM | IC50 [3]: 190 nM | CC30 [6]: 160 µM

SMILES: CCN1c2ncc(COc3ccc4[nH]ccc4c3)cc2C(=O)N(C)c2ccc(Cl)nc21
IC50 [1]: 310 nM | IC50 [3]: 90 nM

SMILES: CCN1c2ncc(COc3cccc4[nH]ccc34)cc2C(=O)N(C)c2ccc(Cl)nc21
Metabolism (Homo sapiens [4]): 208 pmol/min/mg | IC50 [5]: 1360 nM | IC50 [1]: 330 nM | IC50 [3]: 200 nM | CC30 [6]: > 30 µM

SMILES: CCN1c2ncc(COc3cccc(N(C)C)c3)cc2C(=O)N(C)c2ccc(Cl)nc21
inhibition [7]: 0% | inhibition [8]: 0% | inhibition [10]: 7%

SMILES: CCN1c2ncc(COc3cccc([N+](=O)[O-])c3)cc2C(=O)N(C)c2ccc(Cl)nc21
IC50 [1]: 170 nM | IC50 [3]: 350 nM

SMILES: CCN1c2ncc(CS(=O)(=O)c3ccccc3)cc2C(=O)N(C)c2ccc(Cl)nc21
Metabolism (Homo sapiens [4]): 322 pmol/min/mg | IC50 [5]: 11000 nM | IC50 [1]: 100 nM | IC50 [3]: 60 nM

SMILES: CCN1c2ncc(COc3cc[n+]([O-])cc3)cc2C(=O)N(C)c2cccnc21
IC50 [1]: 210 nM | IC50 [3]: 1340 nM

SMILES: CCN1c2ncc(CSc3[nH]cnc4nncc3-4)cc2C(=O)N(C)c2ccc(Cl)nc21
Metabolism (Homo sapiens [4]): 336 pmol/min/mg | IC50 [5]: 120 nM | IC50 [1]: 50 nM | IC50 [3]: 70 nM | CC30 [6]: 40 µM

SMILES: CCN1c2ncc(NCc3ccccc3)cc2C(=O)N(C)c2ccc(Cl)nc21
IC50 [1]: 260 nM | IC50 [3]: 390 nM | inhibition [10]: 0%

SMILES: CCN1c2ncc(C[S+]([O-])c3ccccc3)cc2C(=O)N(C)c2ccc(Cl)nc21 (configuration not stated)
IC50 [5]: 2420 nM | IC50 [1]: 70 nM | IC50 [3]: 140 nM | CC30 [6]: 45 µM

SMILES: CCN1c2ncc(OCc3ccccc3)cc2C(=O)N(C)c2ccc(Cl)nc21
inhibition [7]: 0% | inhibition [8]: 20% | inhibition [10]: 0%

SMILES: CCN1c2ncc(COc3ccnc(C(F)(F)F)c3)cc2C(=O)N(C)c2ccc(Cl)nc21
Metabolism (Homo sapiens [4]): 206 pmol/min/mg | IC50 [1]: 40 nM | IC50 [3]: 70 nM

SMILES: CCN1c2ncc(COc3cccc(C(=O)O)c3)cc2C(=O)N(C)c2ccc(Cl)nc21
IC50 [1]: 90 nM | IC50 [2]: 190 nM | IC50 [3]: 550 nM | CC30 [6]: 250 µM

SMILES: CCN1c2ncc(N(C)C(=O)c3ccccc3)cc2C(=O)N(C)c2ccc(Cl)nc21
inhibition [7]: 22% | IC50 [1]: 210 nM | inhibition [10]: 13%

SMILES: CCN1c2ncc(CSc3ncccn3)cc2C(=O)N(C)c2ccc(Cl)nc21
IC50 [1]: 30 nM | IC50 [3]: 60 nM

Metabolism (Homo sapiens [4]): 144 pmol/min/mg
SMILES: CC(C)Nc1cccnc1N1CCN(C(=O)c2cc3cc(NS(C)(=O)=O)ccc3[nH]2)CC1 [DELAVIRDINE]

SMILES: CCN1c2ncc(CSc3ccncc3)cc2C(=O)N(C)c2ccc(Cl)nc21
Metabolism (Homo sapiens [4]): 372 pmol/min/mg | IC50 [1]: 20 nM | IC50 [3]: 50 nM

SMILES: CCN1c2ncc(COc3cccnc3)cc2C(=O)N(C)c2ccc(Cl)nc21
IC50 [1]: 190 nM | IC50 [3]: 260 nM

SMILES: CCN1c2ncc(COc3ccnc(C)c3)cc2C(=O)N(C)c2ccc(Cl)nc21
IC50 [5]: 230 nM | IC50 [1]: 30 nM | IC50 [3]: 30 nM
